Measured values: patent US4275076A, “Substituted naphthoic acids” (American Cyanamid Company, priority 1980, dated 1981)
Blank lines part the entries; values can stand above or below the molecule they belong to.

How the values were obtained:
collagenase [1] = settings: in words; cited from earlier work
[2] = target: T1, human skin fibroblast collagenase (Homo sapiens, UniProt P03956); assay: Collagenase Assay, Test Code 006 (degradation of 14C-labeled native collagen fibrils); assay type: biochemical; settings: 30 μg./ml., 37° C., 16 hours; based on the 0% value for the enzyme control
T1 construct: endogenous in cells; host or cells: human skin fibroblasts
T1 sequence (P03956 100-469): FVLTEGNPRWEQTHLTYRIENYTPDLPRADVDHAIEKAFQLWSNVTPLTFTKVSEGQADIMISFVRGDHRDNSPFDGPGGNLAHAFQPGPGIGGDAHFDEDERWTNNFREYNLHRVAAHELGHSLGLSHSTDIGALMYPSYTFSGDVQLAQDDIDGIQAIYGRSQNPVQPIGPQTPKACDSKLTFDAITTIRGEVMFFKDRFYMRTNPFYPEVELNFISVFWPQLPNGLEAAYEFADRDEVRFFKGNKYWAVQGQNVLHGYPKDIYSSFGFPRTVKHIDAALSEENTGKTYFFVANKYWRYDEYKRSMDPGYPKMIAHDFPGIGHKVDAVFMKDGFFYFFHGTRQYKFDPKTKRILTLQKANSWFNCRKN
Method: An active inhibitor would inhibit the degradation of the collagen fibril; (iii) Leukocyte Neutral Proteases Inhibitor Assay--This test measures the ability of neutral proteases derived from human leukocytes to degrade radiolabeled proteoglycans entrapped in polyacrylamide beads.
(i) Collagenase Assay--Test Code 006
Collagenase assays were performed by a modification of the method of Harper, et al., Biochem., 10, 3035 (1971). In a typical assay (total volume of 0.45 ml.), 100 μl. of the activated enzyme was added to the ^14 C-labeled collagen fibrils (250 μl.) followed by 100 μl. of 50 mM cacodylate, pH 7.4, containing 5 mM calcium chloride. After incubation at 37° C. for 16 hours, the tubes were centrifuged in a Beckman microfuge for five minutes at full speed. An aliquot (200 μl.) of the supernatant, representing collagenase digestion products of the fibril, was assayed for radioactivity. The effect of the test compound on collagen degradation by collagenase was examined as follows:
The test compound (in distilled water) was added at a test concentration of 30 μg./ml. to the assay tubes containing active collagenase (total volume 450 μl.) and after 16 hours the amount of radioactivity in the supernatant was determined. Appropriate blanks and trypsin controls were run in parallel.
The activities are expressed as % inhibition (lowering) of collagenase activity, i.e. based on the 0% value for the enzyme control.

corneal ulcerations = settings: directly applied to the eye, alkali burned rabbit; cited from earlier work
collagenase [3] = settings: in words; collagenase or a proteinase contaminant in the collagenase preparation; cited from earlier work
[4] = compared with cysteine; cited from earlier work
corneal ulceration = settings: human; cited from earlier work

Molecule: c1cnc2c(c1)ccc1cccnc12 [1,10-phenanthroline]
- collagenase inhibition (collagenase [1]): collagenase inhibitors

- inhibition at 30 µg/mL [2]: 57%
Molecule: CCOC(=O)c1cc(O)c2cc(NC(=O)c3cccc(NC(=O)Nc4cccc(C(=O)Nc5ccc6cc(C(=O)OCC)cc(O)c6c5)c4)c3)ccc2c1 [6,6'-[Ureylenebis(m-phenylenecarbonylimino)]bis[4-hydroxy-2-naphthoic acid] diethyl ester]

- inhibition at 30 µg/mL [2]: 92%
Molecule: O=C(Nc1cccc(C(=O)Nc2ccc3cc(C(=O)O)cc(O)c3c2)c1)Nc1cccc(C(=O)Nc2ccc3cc(C(=O)O)cc(O)c3c2)c1 [6,6'-[Ureylenebis(m-phenylenecarbonylimino)]bis[4-hydroxy-2-naphthoic acid]]

- inhibition at 30 µg/mL [2]: 7%
Molecule: CCOC(=O)c1cc(OC(C)=O)c2cc(NC(=O)c3cccc(NC(=O)Nc4cccc(C(=O)Nc5ccc6cc(C(=O)OCC)cc(OC(C)=O)c6c5)c4)c3)ccc2c1 [6,6'-[Ureylenebis(m-phenylenecarbonylimino)]bis[4-hydroxy-2-naphthoic acid]diethyl ester diacetate]

Molecule: O=C([O-])CN(CCN(CC(=O)[O-])CC(=O)[O-])CC(=O)[O-].[Ca+2].[Ca+2] [Calcium ethylenediaminetetraacetate]
- frequency of ulceration (corneal ulcerations): reduce the frequency of ulceration

Molecule: Cc1ccc(C(=O)Nc2ccc(S(=O)(=O)O)c3cc(S(=O)(=O)O)cc(S(=O)(=O)O)c23)cc1NC(=O)c1cccc(NC(=O)Nc2cccc(C(=O)Nc3cc(C(=O)Nc4ccc(S(=O)(=O)O)c5cc(S(=O)(=O)O)cc(S(=O)(=O)O)c45)ccc3C)c2)c1 [Suramin]
- inhibiting the activity of collagenase (collagenase [3]): not inhibiting the action of collagenase

Molecule: CC(=O)N[C@@H](CS)C(=O)O [acetylcysteine]
- frequency of ulceration (corneal ulcerations): reduce the frequency of ulceration
- stability [4]: greater stability
- treatment of acute and chronic corneal ulceration (corneal ulceration): effective

Molecule: N[C@@H](CS)C(=O)O [cysteine]
- collagenase inhibition (collagenase [1]): collagenase inhibitors
- treatment of acute and chronic corneal ulceration (corneal ulceration): effective

Molecule: O[C@@H](CS)[C@@H](O)CS [dithiothretol]
- collagenase inhibition (collagenase [1]): collagenase inhibitors

Molecule: Cc1cc(-c2ccc(/N=N/c3c(S(=O)(=O)O)cc4cc(S(=O)(=O)O)cc(N)c4c3O)c(C)c2)ccc1/N=N/c1c(S(=O)(=O)O)cc2cc(S(=O)(=O)O)cc(N)c2c1O [trypan blue]
- inhibiting the activity of collagenase (collagenase [3]): inhibiting the activity of collagenase

Molecule: sodium auriothiomalate
- collagenase inhibition (collagenase [1]): collagenase inhibitors

Molecule: α2 -macroglobulin: Naturally occurring collagenase inhibitors include the serum components α2 -macroglobulin and β1-anticollagenase
- collagenase inhibition (collagenase [1]): collagenase inhibitors
